The assay concerns the target T1, catalytic domain of human Bub1 (amino acids 704-1085) (Homo sapiens, UniProt O43683).
T1 construct: catalytic domain of human Bub1 (amino acids 704-1085); His6 (N); made in house; host or cells: Hi5 insect cells
Kind of assay: Bub1 kinase assay (TR-FRET). The format is biochemical. As for the experimental part: To this end, 100-fold concentrated compound solutions (in DMSO) were previously prepared by serial dilution (1:3.4) of 2 mM stocks in a clear low volume 384-well source microtiter plate (Greiner Bio-One, Frickenhausen, Germany), from which 50 nL of compounds were transferred into a black low volume test microtiter plate from the same supplier. […] The resulting mixture (5 μL final volume) was incubated at 22° C. during 60 min., and the reaction was stopped by the addition of 5 μL of an aqueous EDTA-solution (50 mM EDTA, in 100 mM HEPES pH 7.5 and 0.2% (w/v) bovine serum albumin) which also contained the TR-FRET detection reagents (0.2 μM streptavidin-XL665 [Cisbio Bioassays, Codolet, France] and 1 nM anti-phosho-Serine antibody [Merck Millipore, cat. #35-001] and 0.4 nM LANCE EU-W1024 labeled anti-mouse IgG antibody [Perkin-Elmer, product no. AD0077, alternatively a Terbium-cryptate-labeled anti-mouse IgG antibody from Cisbio Bioassays can be used]). The stopped reaction mixture was further incubated 1 h at 22° C. in order to allow the formation of complexes between peptides and detection reagents. Subsequently, the amount of product was evaluated by measurement of the resonance energy transfer from the Eu-chelate-antibody complex recognizing the Phosphoserine residue to the streptavidin-XL665 bound to the biotin moiety of the peptide. […] IC50 values were calculated by fitting the normalized inhibition data to a 4-parameter logistic equation (Minimum, Maximum, IC50, Hill; Y=Max+(Min−Max)/(1+(X/IC50) Hill)).
For orientation: In TR-FRET formats the signal depends on donor and acceptor labels being close together.

[1] abbreviates: Biological Assay 1: Bub1 kinase assay median IC50, 10 μM ATP.
Setting [2] is: 10 μM ATP, read-out: Biological Assay 1: Bub1 kinase assay median IC50.

Where a name gives a salt, the structure may show the parent alone. Read-outs that look alike come from different tables or passages of the source.

What is called IC50 is the concentration at which inhibition is half-maximal.

T1 sequence (O43683 704-1085): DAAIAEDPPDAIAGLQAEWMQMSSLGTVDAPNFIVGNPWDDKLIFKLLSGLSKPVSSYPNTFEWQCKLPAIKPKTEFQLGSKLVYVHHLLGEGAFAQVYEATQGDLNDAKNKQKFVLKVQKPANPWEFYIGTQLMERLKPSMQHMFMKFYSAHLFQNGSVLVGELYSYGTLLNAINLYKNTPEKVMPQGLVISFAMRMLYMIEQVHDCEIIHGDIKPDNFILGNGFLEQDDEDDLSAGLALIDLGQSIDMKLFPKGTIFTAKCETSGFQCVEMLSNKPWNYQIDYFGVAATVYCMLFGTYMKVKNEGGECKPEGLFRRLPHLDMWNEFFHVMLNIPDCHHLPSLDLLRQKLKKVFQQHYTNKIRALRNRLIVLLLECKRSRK

In turn, `COCCOc1cc(F)c(Cn2nc(-c3nc4c(c(Nc5ccncc5OC)n3)COCC4)c3ccccc32)c(F)c1` [Example 2-12-99, 2-{1-[2,6-difluoro-4-(2-methoxyethoxy)benzyl]-1H-indazol-3-yl}-N-(3-methoxypyridin-4-yl)-7,8-dihydro-5H-pyrano[4,3-d]pyrimidin-4-amin] displayed an IC50 under setting [1] of 26 nM.

Regarding `COc1ccc(Cn2nc(-c3nc(C)c(F)c(Nc4ccncc4)n3)c3ccccc32)cc1` [Example 2-12-24, 5-fluoro-2-[1-(4-methoxybenzyl)-1H-indazol-3-yl]-6-methyl-N-(pyridin-4-yl)-pyrimidin-4-amine], the IC50 under setting [1] stood at 55 nM.

As to `CCOc1cc(F)c(Cn2nc(-c3ncc(CCCCN4CC(F)(F)C4)c(Nc4ccncc4)n3)c3ccccc32)c(F)c1` [Example 2-2-20, 5-[4-(3,3-difluoroazetidin-1-yl)butyl]-2-[1-(4-ethoxy-2,6-difluorobenzyl)-1H-indazol-3-yl]-N-(pyridin-4-yl)pyrimidin-4-amine], under setting [1], half-maximal inhibition (IC50) required 58 nM.

Turning to `Oc1cc(F)c(Cn2nc(-c3nc4c(c(Nc5ccncn5)n3)CCC4)c3ccccc32)c(F)c1` [Example 2-6-11, 3,5-difluoro-4-({3-[4-(pyrimidin-4-ylamino)-6,7-dihydro-5H-cyclopenta[d]pyrimidin-2-yl]-1H-indazol-1-yl}methyl)phenol], the midpoint of inhibition under setting [1], the IC50, lay at 14 nM.

Under setting [1], `CCOc1cc(F)c(Cn2nc(-c3ncc(CNC=O)c(Nc4ccncc4)n3)c3ccccc32)c(F)c1` [Example 2-2-8, N-({2-[1-(4-ethoxy-2,6-difluorobenzyl)-1H-indazol-3-yl]-4-(pyridin-4-ylamino)pyrimidin-5-yl}methyl)formamide] yielded a concentration for half-maximal inhibition (IC50) of 10 nM.

Consider `CCOc1cc(F)c(Cn2nc(-c3nc(Nc4ccnc(C)n4)cc(-c4sc(C)nc4C)n3)c3ccccc32)c(F)c1` [Example 2-12-84, 6-(2,4-dimethyl-1,3-thiazol-5-yl)-2-[1-(4-ethoxy-2,6-difluorobenzyl)-1H-indazol-3-yl]-N-(2-methylpyrimidin-4-yl)pyrimidin-4-amine], for which inhibition under setting [1] was half-maximal at 2300 nM (IC50).

For `COCCOc1cc(F)c(Cn2nc(-c3ncc(C4CCNCC4)c(Nc4ccnc(NC(C)=O)c4)n3)c3ccccc32)c(F)c1` [Example 2-17-8, N-(4-{[2-{1-[2,6-difluoro-4-(2-methoxyethoxy)benzyl]-1H-indazol-3-yl}-5-(piperidin-4-yl)pyrimidin-4-yl]amino}pyridin-2-yl)acetamide], 6.3 nM corresponded to half-maximal inhibition under setting [1] (IC50).

Under setting [1], `CCOc1cc(F)c(Cn2nc(-c3ncc(C)c(Nc4ccncc4)n3)c3ccccc32)c(F)c1` [Example 2-2-4, 2-[1-(4-ethoxy-2,6-difluorobenzyl)-1H-indazol-3-yl]-5-methyl-N-(pyridin-4-yl)pyrimidin-4-amine] returned an IC50 of 13 nM.

For `COCCOc1cc(F)c(Cn2nc(-c3ncc(C4CCN(CCC(F)(F)F)CC4)c(Nc4ccncc4Cl)n3)c3ccccc32)c(F)c1` [Example 2-20-9, N-(3-chloropyridin-4-yl)-2-{1-[2,6-difluoro-4-(2-methoxyethoxy)benzyl]-1H-indazol-3-yl}-5-[1-(3,3,3-trifluoropropyl)piperidin-4-yl]pyrimidin-4-amine], under setting [1], 220 nM corresponded to half-maximal inhibition (IC50).

Regarding `COCCOc1cc(F)c(Cn2nc(-c3nc4c(c(Nc5cc(C)ncc5C)n3)CCC(C)(C)C4)c3ccccc32)c(F)c1` [Example 2-15-13, 2-{1-[2,6-difluoro-4-(2-methoxyethoxy)benzyl]-1H-indazol-3-yl}-N-(2,5-dimethylpyridin-4-yl)-7,7-dimethyl-5,6,7,8-tetrahydroquinazolin-4-amine], the half-maximal inhibitory concentration (IC50) under setting [1] stood at 59 nM.

Under setting [1], `COCCOc1cc(F)c(Cn2nc(-c3ncc(C4CCNCC4)c(Nc4ccncc4Cl)n3)c3ccccc32)c(F)c1` [Example 2-17-9, N-(3-chloropyridin-4-yl)-2-{1-[2,6-difluoro-4-(2-methoxyethoxy)benzyl]-1H-indazol-3-yl}-5-(piperidin-4-yl)pyrimidin-4-amine] gave a concentration for half-maximal inhibition (IC50) of 7.5 nM.

As for `COc1cnccc1Nc1nc(-c2nn(Cc3c(F)cc(OCCO)cc3F)c3ccccc23)nc2c1CN(CC(F)(F)F)C2` [Example 2-6-41, 2-{3,5-difluoro-4-[(3-{4-[(3-methoxypyridin-4-yl)amino]-6-(2,2,2-trifluoroethyl)-6,7-dihydro-5H-pyrrolo[3,4-d]pyrimidin-2-yl}-1H-indazol-1-yl)methyl]phenoxy}ethanol], it took 14 nM to reach half-maximal inhibition under setting [1] (IC50).

Turning to `COCCOc1cc(F)c(Cn2nc(-c3nc4c(c(Nc5cc(C)ncc5F)n3)CCC4)c3ccccc32)c(F)c1` [Example 2-12-58, 2-{1-[2,6-difluoro-4-(2-methoxyethoxy)benzyl]-1H-indazol-3-yl}-N-(5-fluoro-2-methylpyridin-4-yl)-6,7-dihydro-5H-cyclopenta[d]pyrimidin-4-amine], the IC50 under setting [1] was 17 nM.

`CCOc1cc(F)c(Cn2nc(-c3nc4c(c(Nc5ccncc5C)n3)CSC4)c3ccccc32)c(F)c1` [Example 2-19-2, 2-[1-(4-ethoxy-2,6-difluorobenzyl)-1H-indazol-3-yl]-N-(3-methylpyridin-4-yl)-5,7-dihydrothieno[3,4-d]pyrimidin-4-amine] gave an IC50 under setting [1] of 25 nM.

Under setting [1], `COCCOc1cc(F)c(Cn2nc(-c3nc(CN4CCOCC4)cc(Nc4ccnc(C(F)F)c4)n3)c3ccccc32)c(F)c1` [Example 2-12-36, 2-{1-[2,6-difluoro-4-(2-methoxyethoxy)benzyl]-1H-indazol-3-yl}-N-[2-(difluoromethyl)pyridin-4-yl]-6-(morpholin-4-ylmethyl)pyrimidin-4-amine] showed a 50% inhibitory concentration (IC50) of 57 nM.

`CCOc1cc(F)c(Cn2nc(-c3nc4c(c(Nc5ccncc5C5CC5)n3)CCC4)c3ccccc32)c(F)c1` [Example 2-14-8, N-(3-cyclopropylpyridin-4-yl)-2-[1-(4-ethoxy-2,6-difluorobenzyl)-1H-indazol-3-yl]-6,7-dihydro-5H-cyclopenta[d]pyrimidin-4-amine] came in with an IC50 under setting [1] of 8.2 nM.

Under setting [1], `COCCOc1cc(F)c(Cn2nc(-c3nc(C)cc(Nc4ccnc(C)n4)n3)c3ccccc32)c(F)c1` [Example 2-12-71, 2-{1-[2,6-difluoro-4-(2-methoxyethoxy)benzyl]-1H-indazol-3-yl}-6-methyl-N-(2-methylpyrimidin-4-yl)pyrimidin-4-amine] showed an IC50 of 75 nM.

The compound `OCCOc1cc(F)c(Cn2nc(-c3nc4c(c(Nc5ccncn5)n3)CN(CC(F)(F)F)C4)c3ccccc32)c(F)c1` [Example 2-6-40, 2-[3,5-difluoro-4-({3-[4-(pyrimidin-4-ylamino)-6-(2,2,2-trifluoroethyl)-6,7-dihydro-5H-pyrrolo[3,4-d]pyrimidin-2-yl]-1H-indazol-1-yl}methyl)phenoxy]ethanol] gave an IC50 under setting [1] of 9.3 nM.

Take `Cc1cc(Nc2nc(-c3nn(Cc4c(F)cc(OCCO)cc4F)c4ccccc34)nc3c2CCC(C)(C)C3)c(C)cn1` [Example 2-6-43, 2-{4-[(3-{4-[(2,5-dimethylpyridin-4-yl)amino]-7,7-dimethyl-5,6,7,8-tetrahydroquin-azolin-2-yl}-1H-indazol-1-yl)methyl]-3,5-difluorophenoxy} ethanol]: the IC50 under setting [1] is 84 nM.

`CCOc1cc(F)c(Cn2nc(-c3nc4c(c(Nc5ccnc(C)c5)n3)COC4)c3ccccc32)c(F)c1` [Example 2-19-16, 2-[1-(4-ethoxy-2,6-difluorobenzyl)-1H-indazol-3-yl]-N-(2-methylpyridin-4-yl)-5,7-dihydrofuro[3,4-d]pyrimidin-4-amine] registered a half-maximal inhibitory concentration (IC50) under setting [1] of 100 nM.

Turning to `CCOc1cc(F)c(Cn2nc(-c3ncc(CC4CN(CC(F)(F)F)C4)c(Nc4ccnc(NC(C)=O)c4)n3)c3ccccc32)c(F)c1` [Example 2-11-4, N-{4-[(2-[1-(4-ethoxy-2,6-difluorobenzyl)-1H-indazol-3-yl]-5-{[1-(2,2,2-trifluoroeth-yl)azetidin-3-yl]methyl}pyrimidin-4-yl)amino]pyr-idin-2-yl}acetamide], half-maximal inhibition under setting [1] (IC50) required 210 nM.

Regarding `CCOc1cc(F)c(Cn2nc(-c3ncc(CCN)c(Nc4ccnc(C)c4)n3)c3ccccc32)c(F)c1` [Example 2-9-12, 5-(2-aminoethyl)-2-[1-(4-ethoxy-2,6-difluorobenzyl)-1H-indazol-3-yl]-N-(2-methylpyridin-4-yl)pyrimidin-4-amine, salt with hydrochloric acid], the IC50 under setting [2] was determined as 4.3 nM.

In the case of `COCCOc1cc(F)c(Cn2nc(-c3ncc(C)c(Nc4ccncc4OC)n3)c3ccccc32)c(F)c1` [Example 2-2-47, 2-{1-[2,6-difluoro-4-(2-methoxyethoxy)benzyl]-1H-indazol-3-yl}-N-(3-methoxypyridin-4-yl)-5-methylpyrimidin-4-amine], the concentration for half-maximal inhibition (IC50) under setting [2] worked out at 8.7 nM.

As to `COCCOc1cc(F)c(Cn2nc(-c3nc(C)c(C)c(Nc4ccncc4OC)n3)c3ccccc32)c(F)c1` [Example 2-12-76, 2-{1-[2,6-difluoro-4-(2-methoxyethoxy)benzyl]-1H-indazol-3-yl}-N-(3-methoxypyridin-4-yl)-5,6-dimethylpyrimidin-4-amine], the half-inhibitory concentration (IC50) under setting [2] stood at 6.2 nM.

The record behind these values is patent publication US20170275270A1, “BENZYL SUBSTITUTED INDAZOLES” (Bayer Pharma Aktiengesellschaft, priority 2014, published 2017).
